What was measured:
Assay type in all cases: cell-based
human TLR7 = target: T1, human TLR7 (Homo sapiens, UniProt Q9NYK1); test: TLR7 inhibition reporter assay (HEK-Blue cells, SEAP reporter, gardiquimod stimulation); settings: HEK-Blue cells overexpressing human TLR7, SEAP reporter, gardiquimod 7.5 μM; read-out: TLR7 IC50
T1 construct: host or cells: HEK-Blue cells
T1 sequence (Q9NYK1 27-1049): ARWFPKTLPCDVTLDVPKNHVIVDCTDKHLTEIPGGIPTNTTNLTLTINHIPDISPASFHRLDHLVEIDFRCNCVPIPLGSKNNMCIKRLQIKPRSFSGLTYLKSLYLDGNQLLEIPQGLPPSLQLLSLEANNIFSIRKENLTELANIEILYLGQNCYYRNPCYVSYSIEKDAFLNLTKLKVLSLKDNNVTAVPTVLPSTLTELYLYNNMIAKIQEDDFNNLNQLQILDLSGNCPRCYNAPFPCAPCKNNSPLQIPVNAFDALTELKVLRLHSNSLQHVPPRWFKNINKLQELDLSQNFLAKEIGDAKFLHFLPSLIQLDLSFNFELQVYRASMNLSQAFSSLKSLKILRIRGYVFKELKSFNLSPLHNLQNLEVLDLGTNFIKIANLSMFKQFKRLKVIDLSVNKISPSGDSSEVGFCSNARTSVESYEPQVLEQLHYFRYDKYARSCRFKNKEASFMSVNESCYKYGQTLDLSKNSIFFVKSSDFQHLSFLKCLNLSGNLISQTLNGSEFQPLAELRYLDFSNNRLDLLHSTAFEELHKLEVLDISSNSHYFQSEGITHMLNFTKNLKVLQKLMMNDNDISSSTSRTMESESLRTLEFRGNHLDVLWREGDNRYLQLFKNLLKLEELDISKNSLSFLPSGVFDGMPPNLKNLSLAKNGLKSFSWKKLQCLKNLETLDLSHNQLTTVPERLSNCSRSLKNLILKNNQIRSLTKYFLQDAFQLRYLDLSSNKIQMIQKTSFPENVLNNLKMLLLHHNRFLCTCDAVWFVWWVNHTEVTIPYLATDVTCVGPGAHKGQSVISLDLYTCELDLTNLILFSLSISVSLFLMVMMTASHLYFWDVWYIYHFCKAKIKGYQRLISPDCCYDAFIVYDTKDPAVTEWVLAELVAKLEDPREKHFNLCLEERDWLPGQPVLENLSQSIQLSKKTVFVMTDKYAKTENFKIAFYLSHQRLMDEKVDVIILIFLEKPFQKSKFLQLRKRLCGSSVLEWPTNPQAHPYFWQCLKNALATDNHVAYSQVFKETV
How it was run: (§1)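 Screening used HEK-Blue cells overexpressing one human TLR (7, 8 or 9) and an IFN-β minimal promoter–NF-κB/AP-1 SEAP construct. Stimulation lasted 22 h at 37 °C with receptor-specific agonist: gardiquimod, R848 or ODN2006 at 7.5 μM, 15.9 μM and 5 nM.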

human TLR8 = target: T2, human TLR8 (Homo sapiens, UniProt Q9NR97); test: TLR8 inhibition reporter assay (HEK-Blue cells, SEAP reporter, R848 stimulation); settings: HEK-Blue cells overexpressing human TLR8, SEAP reporter, R848 15.9 μM; read-out: TLR8 IC50
T2 construct: host or cells: HEK-Blue cells
T2 sequence (Q9NR97 27-1041): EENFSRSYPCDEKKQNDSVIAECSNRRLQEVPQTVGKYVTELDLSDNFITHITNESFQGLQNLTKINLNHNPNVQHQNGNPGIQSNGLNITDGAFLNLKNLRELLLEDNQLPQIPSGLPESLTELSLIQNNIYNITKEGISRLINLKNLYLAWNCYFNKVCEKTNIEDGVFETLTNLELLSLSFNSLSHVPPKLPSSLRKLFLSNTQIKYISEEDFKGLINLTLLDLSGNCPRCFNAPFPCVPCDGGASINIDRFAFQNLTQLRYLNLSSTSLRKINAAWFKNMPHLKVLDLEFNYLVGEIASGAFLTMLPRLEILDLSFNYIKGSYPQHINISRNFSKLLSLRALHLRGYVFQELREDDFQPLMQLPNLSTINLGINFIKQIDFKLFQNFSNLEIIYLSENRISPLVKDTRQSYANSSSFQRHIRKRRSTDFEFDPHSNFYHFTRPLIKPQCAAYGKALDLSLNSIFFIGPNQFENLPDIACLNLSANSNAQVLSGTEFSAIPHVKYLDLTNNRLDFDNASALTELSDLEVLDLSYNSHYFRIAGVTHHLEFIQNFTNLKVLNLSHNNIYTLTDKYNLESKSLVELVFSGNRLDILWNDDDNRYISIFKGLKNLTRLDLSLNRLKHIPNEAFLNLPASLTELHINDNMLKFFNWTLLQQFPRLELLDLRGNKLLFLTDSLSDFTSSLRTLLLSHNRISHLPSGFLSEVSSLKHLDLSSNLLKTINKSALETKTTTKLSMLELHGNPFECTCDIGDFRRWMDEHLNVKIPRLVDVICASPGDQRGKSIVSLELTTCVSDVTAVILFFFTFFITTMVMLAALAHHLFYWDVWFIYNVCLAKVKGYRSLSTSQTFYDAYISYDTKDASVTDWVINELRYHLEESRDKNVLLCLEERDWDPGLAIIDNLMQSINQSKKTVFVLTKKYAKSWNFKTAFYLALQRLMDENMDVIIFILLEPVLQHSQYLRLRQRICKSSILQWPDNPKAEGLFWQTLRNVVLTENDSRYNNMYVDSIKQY
How it was run: as §1

human TLR9 = target: T3, human TLR9 (Homo sapiens, UniProt Q9NR96); test: TLR9 inhibition reporter assay (HEK-Blue cells, SEAP reporter, ODN2006 stimulation); settings: HEK-Blue cells overexpressing human TLR9, SEAP reporter, ODN2006 5 nM
T3 construct: host or cells: HEK-Blue cells
T3 sequence (Q9NR96 26-1032): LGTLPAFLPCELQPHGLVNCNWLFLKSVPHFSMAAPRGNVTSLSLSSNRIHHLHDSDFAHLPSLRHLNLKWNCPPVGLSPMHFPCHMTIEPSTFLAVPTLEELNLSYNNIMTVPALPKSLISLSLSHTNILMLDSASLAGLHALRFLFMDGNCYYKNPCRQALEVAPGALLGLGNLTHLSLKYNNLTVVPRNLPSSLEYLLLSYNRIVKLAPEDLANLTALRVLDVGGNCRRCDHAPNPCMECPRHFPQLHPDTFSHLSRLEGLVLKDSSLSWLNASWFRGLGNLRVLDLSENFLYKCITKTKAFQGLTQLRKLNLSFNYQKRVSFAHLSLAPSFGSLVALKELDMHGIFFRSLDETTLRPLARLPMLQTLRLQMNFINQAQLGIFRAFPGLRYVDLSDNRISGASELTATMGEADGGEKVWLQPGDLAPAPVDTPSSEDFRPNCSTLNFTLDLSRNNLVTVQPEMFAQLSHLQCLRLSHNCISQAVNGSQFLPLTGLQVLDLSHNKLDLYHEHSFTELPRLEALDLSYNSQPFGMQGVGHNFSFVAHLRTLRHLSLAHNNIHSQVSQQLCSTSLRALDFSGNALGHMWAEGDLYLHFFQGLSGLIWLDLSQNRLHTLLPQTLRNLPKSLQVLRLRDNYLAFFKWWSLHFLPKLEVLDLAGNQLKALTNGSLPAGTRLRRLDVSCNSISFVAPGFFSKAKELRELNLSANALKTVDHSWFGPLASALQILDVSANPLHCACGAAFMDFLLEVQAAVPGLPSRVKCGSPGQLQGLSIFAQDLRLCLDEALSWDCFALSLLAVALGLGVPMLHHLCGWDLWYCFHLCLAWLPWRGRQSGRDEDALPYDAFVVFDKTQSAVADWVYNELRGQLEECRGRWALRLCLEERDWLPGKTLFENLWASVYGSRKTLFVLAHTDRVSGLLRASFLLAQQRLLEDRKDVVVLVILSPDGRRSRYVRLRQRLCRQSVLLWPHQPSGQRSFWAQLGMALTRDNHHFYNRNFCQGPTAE
Protocol: TLR7/8/9 Inhibition Reporter Assays
HEK-Blue™-cells (Invivogen) overexpressing human TLR7, TLR8 or TLR9 receptors were used for screening inhibitors of these receptors using an inducible SEAP (secreted embryonic alkaline phosphatase) reporter gene under the control of the IFN-β minimal promoter fused to five NF-κB and AP-1-binding sites. Briefly, cells are seeded into Greiner 384 well plates (15000 cells per well for TLR7, 20,000 for TLR8 and 25,000 for TLR9) and then treated with test compounds in DMSO to yield a final dose response concentration range of 0.05 nM-50 μM. After a 30 minute compound pre-treatment at room temperature, the cells are then stimulated with a TLR7 ligand (gardiquimod at a final concentration of 7.5 μM), TLR8 ligand (R848 at a final concentration of 15.9 μM) or TLR9 ligand (ODN2006 at a final concentration of 5 nM) to activate NF-κB and AP-1 which induce the production of SEAP. After a 22 hour incubation at 37° C., 5% CO2, SEAP levels are determined with the addition of HEK-Blue™ Detection reagent (Invivogen), a cell culture medium that allows for detection of SEAP, according to manufacturer's specifications. The percent inhibition is determined as the % reduction in the HEK-Blue signal present in wells treated with agonist plus DMSO alone compared to wells treated with a known inhibitor.

| IC50 (human TLR7) [nM] | IC50 (human TLR8) [nM] | IC50 (human TLR9) [nM] | SMILES |
| --- | --- | --- | --- |
| 4.69 | 43.6 | > 50000 | COc1cc(-c2[nH]c3sc(C4CCC(N5CCS(=O)(=O)CC5)CC4)nc3c2C(C)C)cn2ncnc12 (single isomer, unassigned) [Example 82, 4-(4-(6-isopropyl-5-(8-methoxy-[1,2,4]triazolo[1,5-a]pyridin-6-yl)-4H-pyrrolo[3,2-d]thiazol-2-yl)cyclohexyl)thiomorpholine 1,1-dioxide] |
| 6.33 | 238 | > 50000 | COc1cc(-c2[nH]c3sc(C4CCC(N5CCS(=O)(=O)CC5)CC4)nc3c2C(C)C)cn2ncnc12 (single isomer, unassigned) [Example 83, 4-(4-(6-isopropyl-5-(8-methoxy-[1,2,4]triazolo[1,5-a]pyridin-6-yl)-4H-pyrrolo[3,2-d]thiazol-2-yl)cyclohexyl)thiomorpholine 1,1-dioxide] |
| 0.9 | 0.84 | 9110 | COc1cc(-c2[nH]c3sc(C4CCC(NCC(C)(C)O)CC4)nc3c2C(C)C)cn2ncnc12 (single isomer, unassigned) [Example 84, 1-((4-(6-isopropyl-5-(8-methoxy-[1,2,4]triazolo[1,5-a]pyridin-6-yl)-4H-pyrrolo[3,2-d]thiazol-2-yl)cyclohexyl)amino)-2-methylpropan-2-ol] |
| 2.66 | 17.5 | 6910 | COc1cc(-c2[nH]c3sc(C4CCC(NCC(C)(C)O)CC4)nc3c2C(C)C)cn2ncnc12 (single isomer, unassigned) [Example 85, 1-((4-(6-isopropyl-5-(8-methoxy-[1,2,4]triazolo[1,5-a]pyridin-6-yl)-4H-pyrrolo[3,2-d]thiazol-2-yl)cyclohexyl)amino)-2-methylpropan-2-ol] |
| 1.34 | 0.7 | 6420 | COc1cc(-c2[nH]c3sc(C4CCC(NCC(C)(C)OC)CC4)nc3c2C(C)C)cn2ncnc12 (single isomer, unassigned) [Example 86, 4-(6-isopropyl-5-(8-methoxy-[1,2,4]triazolo[1,5-a]pyridin-6-yl)-4H-pyrrolo[3,2-d]thiazol-2-yl)-N-(2-methoxy-2-methylpropyl)cyclohexan-1-amine] |
| 1.73 | 11.8 | 7790 | COc1cc(-c2[nH]c3sc(C4CCC(NCC(C)(C)OC)CC4)nc3c2C(C)C)cn2ncnc12 (single isomer, unassigned) [Example 87, 4-(6-isopropyl-5-(8-methoxy-[1,2,4]triazolo[1,5-a]pyridin-6-yl)-4H-pyrrolo[3,2-d]thiazol-2-yl)-N-(2-methoxy-2-methylpropyl)cyclohexan-1-amine] |
| 0.81 | 1.84 | 4450 | COc1cc(-c2[nH]c3sc(C4CCC(N(C)C(C)C)CC4)nc3c2C(C)C)cn2ncnc12 (single isomer, unassigned) [Example 88, N-isopropyl-4-(6-isopropyl-5-(8-methoxy-[1,2,4]triazolo[1,5-a]pyridin-6-yl)-4H-pyrrolo[3,2-d]thiazol-2-yl)-N-methylcyclohexan-1-amine] |
| 1.48 | 18.9 | 4100 | COc1cc(-c2[nH]c3sc(C4CCC(N(C)C(C)C)CC4)nc3c2C(C)C)cn2ncnc12 (single isomer, unassigned) [Example 89, N-isopropyl-4-(6-isopropyl-5-(8-methoxy-[1,2,4]triazolo[1,5-a]pyridin-6-yl)-4H-pyrrolo[3,2-d]thiazol-2-yl)-N-methylcyclohexan-1-amine] |
| 0.8 | 1.13 | 11100 | COc1cc(-c2[nH]c3sc(C4CCC(NC[C@@H](F)C(C)(C)O)CC4)nc3c2C(C)C)cn2ncnc12 (single isomer, unassigned) [Example 90] |
| 4.01 | 8.12 | 6720 | COc1cc(-c2[nH]c3sc(C4CCC(NC[C@@H](F)C(C)(C)O)CC4)nc3c2C(C)C)cn2ncnc12 (single isomer, unassigned) [Example 91] |

Reference: patent US20230139171A1 (SITA Information Networking Computing UK Limited, priority 2019, published 2023)
